Values joined by “and” are separate entries in the source; they are usually repeats but may differ in a detail not shown here. Identical values can stand only once. [nps] = N3'→P5' thiophosphoramidate linkage; {Palm} = palmitoyl lipid
System: RBC transfusion-dependent patients with IPSS low or intermediate-1 risk MDS
Assay: Phase 3 trial: hematologic improvement-erythroid (HI-E) and hemoglobin
Type: in vivo, human
Text: The primary end point was rate of RBC-TI for 8 consecutive weeks or longer. Key secondary end points included rate of 24-week TI, duration of TI, and the rate of hematologic response (hematologic improvement-erythroid [HI-E], based on modified International Working Group [IWG] 2006 criteria, and HI-E per revised IWG 2018). Additional secondary end points included relative change in number of RBC transfusions received by patients, relative change in hemoglobin, and safety. The changes in mutational status and in patient-reported fatigue over time (assessed by the Functional Assessment of Chronic Illness Therapy [FACIT] Fatigue Scale) were exploratory end points. Subgroup analyses were performed including baseline presence or absence of RS, prior RBC transfusion burden (≥4 to ≤6 or >6 RBC units/8-weeks during a 16-week period prior to randomization), and low or intermediate-1 IPSS risk categories. Subgroup analyses were also performed, including baseline mutation status as well as telomerase activity (TA), telomere lengths (TL), and human telomerase reverse transcriptase (hTERT) levels. Peripheral blood hematology, bone marrow evaluation, mutation assessment, and cytogenetic evaluation were performed centrally and responses assessed by an independent review committee (IRC). Rate of 1-year RBC-TI was reported as a post hoc analysis.
Key Secondary End Point Rate of hematologic improvement, including HI-E: per modified IWG 2006.
Changes over time in transfusion units and hemoglobin levels were compared by a mixed model for repeated measures with weeks since randomization, prior transfusion burden, minimum hemoglobin in the 8 weeks prior to first dose (for hemoglobin), and treatment arm as the independent variables with autoregressive moving average covariance structure.

## Imetelstat: first-in-class telomerase inhibitor; synthetic lipid-conjugated 13-mer oligonucleotide N3′→P5′-thiophosphoramidate (TAGGGTTAGACAA; all [nps], 5' {Palm}, sugars by position and methylation of C not given here)
8-week TI responders
  Median hemoglobin peak: 11.3 g/dL
8-week TI responders, during TI period
  Median hemoglobin increase from pretreatment to peak: 3.55 g/dL and 3.6 g/dL
HTB subjects
  Major HI-E response, % difference vs placebo: 30.9%
  Minor HI-E response, % difference vs placebo: 34.8%
HTB subjects (97)
  Major HI-E response (16-week RBC-TI), patients: 30 No. of patients
  Minor HI-E response (50% RBC units reduction in 16 weeks), patients: 43 No. of patients
LTB subjects
  HI-E response (16-week RBC-TI), % difference vs placebo: 11.1%
LTB subjects (21)
  HI-E response (16-week RBC-TI), patients: 7 No. of patients
N=118
  HI-E per IWG 2006, patients: 75 n
  HI-E per IWG 2018, patients: 50 n
  Increase in hemoglobin ≥1.5 g/dL for ≥8 wk, patients: 40 n
  Transfusion reduction by 50%/16 weeks rate: 43.2%
  Transfusion reduction by 50%/16 weeks, patients: 51 n
  Transfusion reduction by ≥4 units/8 wk, patients: 71 n
N=118, listed as imetelstat
  HI-E per IWG 2018 rate: 42% and 42.4%
  Increase in hemoglobin ≥1.5 g/dL for ≥8 wk rate: 34%
In vivo
  HI-E IWG 2006, % difference vs placebo: 11.9%,
  HI-E IWG 2018, % difference vs placebo: 29.0%,
  Increase in hemoglobin ≥1.5 g/dL for ≥8 wk, % difference vs placebo: 23.9%
  Transfusion reduction by ≥4 units/8 wk, % difference vs placebo: 10.2%,
≥1-year TI responders
  Median increase in hemoglobin during the longest TI interval: 5.2 g/dL and 5.18 g/dL

Source: patent publication US20240285773A1, “METHODS OF TREATING MYELODYSPLASTIC SYNDROME AND MONITORING THE TREATMENT” (Geron Corporation, priority 2023, published 2024)
